Test results from patent US20220305019A1, “PARAXANTHINE-BASED COMPOSITIONS FOR PROMOTING WEIGHT LOSS” (Ingenious Ingredients, LP, priority 2021, published 2022).

Assays:
Format in all cases: in vivo, human
[1] = Appetite visual analog scale (VAS) after oral ingestion, crossover, two participants; conditions: 200 mg CA; for Appetite Visual Analog Scale MEAN: mean 30-180 min
Method: All supplements were orally ingested with 8 fluid ounces of cold tap water. The order of administration for all interventions was randomized using a random allocation software to ensure randomization and to avoid order effects. […] All study visits took place between 0600-1000 hours. At least 72 hours of rest will take place between each condition.

[2] = Swagger visual analog scale (VAS) after oral ingestion, crossover, two participants; conditions: 200 mg Caffeine
Method: (§1) All supplements were orally ingested with 8 fluid ounces of cold tap water. The order of administration for all interventions was randomized using a random allocation software to ensure randomization and to avoid order effects. After ingestion, participants completed all assessments in an identical fashion 30, 60, 90, 120, and 180 minutes after ingestion of their assigned supplement. All study visits took place between 0600-1000 hours. At least 72 hours of rest took place between each condition.

[3] = Confidence visual analog scale (VAS) after oral ingestion, crossover, two participants; set-up: Confidence (Visual Analog Scale) / Confidence VAS MEAN: scale not given here; conditions: for Confidence (Visual Analog Scale) / Confidence VAS MEAN / Confidence VAS mean Δ vs. 100 mg PX / Confidence VAS mean Δ vs. PLA: 200 mg Caffeine
Method: as §1

For `Cn1c(=O)c2c(ncn2C)n(C)c1=O` [CA, caffeine, reference compound], the “reduction in appetite compared to placebo” value [1] was 2.4%, the “Appetite Visual Analog Scale” value ([1]; 30 min, person one) was 70 and the “Appetite Visual Analog Scale” value ([1]; 30 min, person two) was 50. For the same molecule, the “Appetite Visual Analog Scale” value ([1]; 60 min, person one) was 100, the “Appetite Visual Analog Scale” value ([1]; 60 min, person two) was 60 and the “Appetite Visual Analog Scale” value ([1]; 90 min, person one) was 100. For the same molecule, the “Appetite Visual Analog Scale” value ([1]; 90 min, person two) was 61, the “Appetite Visual Analog Scale” value ([1]; 120 min, person one) was 100 and the “Appetite Visual Analog Scale” value ([1]; 120 min, person two) was 65. For the same molecule, the “Appetite Visual Analog Scale” value ([1]; 180 min, person one) was 100, the “Appetite Visual Analog Scale” value ([1]; 180 min, person two) was 70 and the “Appetite Visual Analog Scale MEAN” value ([1]; Average of both) was 77.6. For the same molecule, the “Appetite Visual Analog Scale MEAN” value ([1]; person one) was 94.0, the “Appetite Visual Analog Scale MEAN” value ([1]; person two) was 61.2 and the “Appetite VAS mean Δ vs. 100 mg PX” value ([1]; person one) was “+65.0”. For the same molecule, the “Appetite VAS mean Δ vs. 300 mg PX” value ([1]; person one) was “+66.8”, the “Appetite VAS mean Δ vs. PLA” value ([1]; person one) was −0.2 and the “Appetite VAS mean Δ vs. 100 mg PX” value ([1]; person two) was −12.8. The “Appetite VAS mean Δ vs. 300 mg PX” value ([1]; person two) was −2.8, the “Appetite VAS mean Δ vs. PLA” value ([1]; person two) was −12.0 and the “Swagger (Visual Analog Scale)” value ([2]; 30 min, person one) was 64. The “Swagger (Visual Analog Scale)” value ([2]; 30 min, person two) was 65, the “Swagger (Visual Analog Scale)” value ([2]; 60 min, person one) was 56 and the “Swagger (Visual Analog Scale)” value ([2]; 60 min, person two) was 62. For the same molecule, the “Swagger (Visual Analog Scale)” value ([2]; 90 min, person one) was 51, the “Swagger (Visual Analog Scale)” value ([2]; 90 min, person two) was 62 and the “Swagger (Visual Analog Scale)” value ([2]; 120 min, person one) was 61. The “Swagger (Visual Analog Scale)” value ([2]; 120 min, person two) was 59, the “Swagger (Visual Analog Scale)” value ([2]; 180 min, person one) was 44 and the “Swagger (Visual Analog Scale)” value ([2]; 180 min, person two) was 69. For the same molecule, the “Swagger VAS mean Δ vs. 100 mg PX” value ([2]; person one) was −31.0, the “Swagger VAS mean Δ vs. PLA” value ([2]; person one) was −23.4 and the “Swagger VAS MEAN” value ([2]; person two) was 63.4. The “Swagger VAS mean Δ vs. 100 mg PX” value ([2]; person two) was −10.0, the “Swagger VAS mean Δ vs. PLA” value ([2]; person two) was “+10.0” and the “Confidence (Visual Analog Scale)” value ([3]; 30 min, person one) was 80. For the same molecule, the “Confidence (Visual Analog Scale)” value ([3]; 30 min, person two) was 74, the “Confidence (Visual Analog Scale)” value ([3]; 60 min, person one) was 91 and the “Confidence (Visual Analog Scale)” value ([3]; 60 min, person two) was 76. The “Confidence (Visual Analog Scale)” value ([3]; 90 min, person one) was 71, the “Confidence (Visual Analog Scale)” value ([3]; 90 min, person two) was 66 and the “Confidence (Visual Analog Scale)” value ([3]; 120 min, person one) was 80. The “Confidence (Visual Analog Scale)” value ([3]; 120 min, person two) was 70, the “Confidence (Visual Analog Scale)” value ([3]; 180 min, person one) was 90 and the “Confidence (Visual Analog Scale)” value ([3]; 180 min, person two) was 65. For the same molecule, the “Confidence VAS MEAN” value ([3]; Average of both) was 76.3, the “Confidence VAS MEAN” value ([3]; person one) was 82.4 and the “Confidence VAS mean Δ vs. 100 mg PX” value ([3]; person one) was “+0.4”. For the same molecule, the “Confidence VAS mean Δ vs. PLA” value ([3]; person one) was “+1”, the “Confidence VAS MEAN” value ([3]; person two) was 70.2 and the “Confidence VAS mean Δ vs. 100 mg PX” value ([3]; person two) was “+0.2”. For the same molecule, the “Confidence VAS mean Δ vs. PLA” value ([3]; person two) was −0.8 and the effect on confidence ([3]; 200 mg of CA) was “failed to increase confidence”.
